Measurements as given in patent publication US6172038A, “Antipathogenic peptides and compositions comprising them” (priority 1996, dated 2001).
Where no end group is shown, it is not given here. [ ]: non-standard residue; d: D form.

Experiments:
[1] = phosphatidylglycerol/phosphatidylcholine (Beschiaschvili and Seelig, 1990); cited from earlier work
[2] = Membrane permeation, diffusion potential assay; details: zwitterionic vesicles
Method: (xi) Membrane permeation induced by the peptides. Membrane permeation was assessed utilizing the diffusion potential assay (Loew et al., 1983; Sims et al., 1974) as previously described (Shai et al., 1991). In a typical experiment, in a glass tube, 4 μl of a liposomes suspension (final phospholipids concentration of 33 μM), in a K^+ containing buffer (50 mM K2 SO4, 25 mM HEPES-SO4^-2, pH 6.8), was diluted in 1 ml of an isotonic K^+ free buffer (50 mM Na2 SO4, 25 mM HEPES-SO4^-2, pH 6.8), and the fluorescent, potential-sensitive dye diS-C2 -5 was then added. Valinomycin (1 μl of 10^-7 M) was added to the suspension in order to slowly create a negative diffusion potential inside the vesicles, which led to a quenching of the dye's fluorescence. Once the fluorescence had stabilized, which took 3-10 minutes, peptides were added. The subsequent dissipation of the diffusion potential, as reflected by an increase in fluorescence, was monitored on a Perkin Elmer LS-50B spectrofluorometer, with the excitation set at 620 nm, the emission at 670 nm, and the gain adjusted to 100%. The percentage of fluorescence recovery, Ft, was defined as:
where I0 =the initial fluorescence, If =the total fluorescence observed before the addition of valinomycin, and It =the fluorescence observed after adding the peptide at time t.

[3] = tested on: human red blood cells (hRBC); assay: Hemolysis of human red blood cells; type: cell-based; details: for % hemolysis at 50 μM peptide / % hemolysis at 100 μM: 30 min at 37° C.
Method: (ix) Hemolysis of human red blood cells. The peptides were tested for their hemolytic activities against human red blood cells (hRBC). Fresh hRBC with EDTA were rinsed 3 times with PBS (35 mM phosphate buffer/0.15 M NaCl, pH 7.3) by centrifugation for 10 min at 800 g and resuspended in PBS. Peptides dissolved in PBS were then added to 50 μL of a solution of the stock hRBC in PBS to reach a final volume of 100 μL (final erythrocyte concentration, 5% v/v). The resulting suspension was incubated under agitation for 30 min at 37° C. The samples were then centrifuged at 800 g for 10 min. Release of hemoglobin was monitored by measuring the absorbance of the supernatant at 540 nm. Controls for zero hemolysis (blank) and 100% hemolysis consisted of hRBC suspended in PBS and Triton 1%, respectively.

Escherichia coli D21 = assay: Antibacterial activity (MIC), growth inhibition in 96-well plates; type: cell-based; details: for Minimal Inhibitory Concentration E. coli (D21): 100% inhibition of growth after 18-20 h at 37° C.
Bacillus megaterium Bm11 = assay: as above; type: cell-based; details: 100% inhibition of growth after 18-20 h at 37° C.
[4] = tested on: Acinetobacter calcoaceticus Ac11; assay: as above; type: cell-based; details: 100% inhibition of growth after 18-20 h at 37° C.
[5] = tested on: Pseudomonas aeruginosa ATCC 27853; assay: Antibacterial activity (MIC), growth inhibition in 96-well plates; also synergy with tetracycline; type: cell-based
Method: (viii) Antibacterial activity of the peptides.
Antibacterial activity of the mixtures was determined as described in Experimental procedures, section (xii).

[6] = tested on: P. aeruginosa and E. coli; assay: Effect of pooled human serum on antibacterial activity; type: cell-based
Method: (vi) Preparation of serunl Blood was collected from five volunteers and allowed to clot at room temperature for 4 h. The blood was then centrifuged for 15 min at 1500 g, and the serum was removed and pooled. The serum complement was inactivated by heating at 56° C. for 30 min.
(viii) Antibacterial activity of the peptides. The antibacterial activity of the diastereomers was examined in sterile 96-well plates (Nunc F96 microtiter plates) in a final volume of 100 μL as follows: Aliquots (50 μl) of a suspension containing bacteria at a concentration of 10^6 Colony-Forming Units (CFU)/ml LB (Lauria broth) medium were added to 50 μL of water or 66% pooled normal human serum in PBS, containing the peptide in 2-fold serial dilutions. Growth inhibition was determined by measuring the absorbance at 492 nm with a Microplate autoreader El309 (Bio-tek Instruments), following incubation for 18-20 h at 37° C. […] The bacteria used were: Escherichia coli D21, Pseudomonas aeruginosa ATCC 27853, Acinetobacter calcoaceticus Acl1, Salmonella typhimurium LT2, Bacillus megaterium Bml1, Micrococcus luteus ATCC 9341, Bacillus subtilis ATCC 6051.

[7] = tested on: Bacillus subtilis ATCC 6051; assay: Antibacterial activity (MIC), growth inhibition in 96-well plates; type: cell-based; details: 100% inhibition of growth after 18-20 h at 37° C.

## CC[C@H](C)[C@H](NC(=O)CN)C(=O)NCC(=O)N[C@@H](C)C(=O)N[C@H](C(=O)N[C@@H](CC(C)C)C(=O)N[C@@H](CCCCN)C(=O)N[C@H](C(=O)N[C@@H](CC(C)C)C(=O)N[C@H](C(=O)N[C@H](C(=O)NCC(=O)N[C@@H](CC(C)C)C(=O)N1CCC[C@H]1C(=O)N[C@@H](C)C(=O)N[C@@H](CC(C)C)C(=O)N[C@H](C(=O)N[C@@H](CO)C(=O)N[C@@H](Cc1c[nH]c2ccccc12)C(=O)N[C@H](C(=O)N[C@@H](CCCCN)C(=O)N[C@@H](CCCNC(=N)N)C(=O)N[C@@H](CCCCN)C(=O)N[C@@H](CCCNC(=N)N)C(=O)N[C@@H](CCC(N)=O)C(=O)N[C@@H](CCC(N)=O)C(N)=O)[C@@H](C)CC)[C@@H](C)CC)[C@@H](C)O)[C@@H](C)O)C(C)C)C(C)C [Melittin, reference compound]
[1]
  surface partition coefficient reported for melittin: 4.5±0.6×10^4 M^-1
[2]
  membrane permeating activity with PC vesicles: highly active
[3]
  % hemolysis at 50 μM peptide: 100%
[3]; up to maximum concentration tested (50 μM)
  hemolytic activity (dose response): the most hemolytic

## (Lys-Leu-Leu-Leu-Lys-Leu-Leu-Leu-Lys-Leu-Leu-Lys-Cys-NH2)5 Lys-Leu-Leu-Leu-Lys-Leu-Leu-Leu-Lys-Leu-Leu-Lys-NH2 [Peptide 92]
Escherichia coli D21
  Minimal Inhibitory Concentration E. coli (D21): 0.2 µM
Bacillus megaterium Bm11
  Minimal Inhibitory Concentration B. megaterium (Bm11): 0.05 µM
[3]
  % hemolysis at 100 μM: 0%

## (Lys-Leu-Leu-Leu-Lys-Leu-Lys-Leu-Lys-Leu-Leu-Lys-Cys-NH2)5 Lys-Leu-Leu-Leu-Lys-Leu-Leu-Leu-Lys-Leu-Leu-Lys-NH2 [Peptide 93]
Escherichia coli D21
  Minimal Inhibitory Concentration E. coli (D21): 0.1 µM
Bacillus megaterium Bm11
  Minimal Inhibitory Concentration B. megaterium (Bm11): 0.02 µM
[3]
  % hemolysis at 100 μM: 0%

## Gly-Phe-Phe-Ala-Leu-Ile-Pro-Lys-Ile-Ile-Ser-Ser-Pro-Leu-Phe-Lys-Thr-Leu-Leu-Ser-Ala-Val-(NH--CH2 --CH2 --NH2)2 (GFFALI[dP]KIISSPLFKTLLSAV; not fully specified (C-terminus); printed as Gly-Phe-Phe-Ala-Leu-Ile-Pro-Lys-Ile-Ile-Ser-Ser-Pro-Leu-Phe-Lys-Thr-Leu-Leu-Ser-Ala-Val-(NH—$CH_2$—$CH_2$—$NH_2$)$_2$; also: C-terminus written (NH--CH2--CH2--NH2)2) [Peptide 2]
Escherichia coli D21
  Minimal Inhibitory Concentration E. coli (D21): 12.5 µM
Bacillus megaterium Bm11
  Minimal Inhibitory Concentration B. megaterium (Bm11): 2.5 µM
[4]
  Minimal Inhibitory Concentration A. calcoaceticus (Ac11): 12.5 µM
[3]
  % hemolysis at 50 μM peptide: 0%

## KLLLKLLK [Peptide 29]
Escherichia coli D21
  Minimal Inhibitory Concentration E. coli (D21): 3 µM
Bacillus megaterium Bm11
  Minimal Inhibitory Concentration B. megaterium (Bm11): 3 µM
[3]
  % hemolysis at 100 μM: 0%

## KLLLLK [Peptide 28]
Escherichia coli D21
  Minimal Inhibitory Concentration E. coli (D21): 200 µM
Bacillus megaterium Bm11
  Minimal Inhibitory Concentration B. megaterium (Bm11): 50 µM
[3]
  % hemolysis at 100 μM: 0%

## Lys-Gly-Phe-Phe-Ala-Leu-Ile-Pro-Lys-Ile-Ile-Ser-Ser-Pro-Leu-Phe-Lys-Thr-Leu-Leu-Ser-Ala-Val-(NH--CH2 --CH2 --NH2)2 (KGFFALI[dP]KIISSPLFKTLLSAV; not fully specified (C-terminus); printed as Lys-Gly-Phe-Phe-Ala-Leu-Ile-Pro-Lys-Ile-Ile-Ser-Ser-Pro-Leu-Phe-Lys-Thr-Leu-Leu-Ser-Ala-Val-(NH—$CH_2$—$CH_2$—$NH_2$)$_2$; also: D-Pro7 (position 7 is Ile), C-terminus written (NH--CH2--CH2--NH2)2) [Peptide 4]
Escherichia coli D21
  Minimal Inhibitory Concentration E. coli (D21): 7.5 µM
Bacillus megaterium Bm11
  Minimal Inhibitory Concentration B. megaterium (Bm11): 1.5 µM
[4]
  Minimal Inhibitory Concentration A. calcoaceticus (Ac11): 7.5 µM
[3]
  % hemolysis at 50 μM peptide: 0%

## Lys-Lys-Gly-Phe-Phe-Ala-Leu-lle-Er-Lys-Ile-Ile-Ser-Ser-Pro-Leu-Phe-Lys-Thr- Leu-Leu-Ser-Ala-Val-(NH--CH2 --CH2 --NH2)2 [Peptide 5]
Escherichia coli D21
  Minimal Inhibitory Concentration E. coli (D21): 3.5 µM
Bacillus megaterium Bm11
  Minimal Inhibitory Concentration B. megaterium (Bm11): 0.75 µM
[4]
  Minimal Inhibitory Concentration A. calcoaceticus (Ac11): 3.5 µM
[3]
  % hemolysis at 50 μM peptide: 0%

## dermaseptin S [reference compound]
[5]; 0% Serum
  Minimal Inhibitory Concentration P. aeruginosa (ATCC-27853) 0% Serum: 25 µM
[5]; 33% pooled human serum
  Minimal Inhibitory Concentration P. aeruginosa (ATCC-27853) 33% Serum: 200 µM
[5]; 100% inhibition of growth after 18-20 h at 37° C.
  Minimal Inhibitory Concentration P. aeruginosa (ATCC 27853): 25 µM
Escherichia coli D21; 0% Serum
  Minimal Inhibitory Concentration E. coli (D21) 0% Serum: 6 µM
Escherichia coli D21; 33% pooled human serum
  Minimal Inhibitory Concentration E. coli (D21) 33% Serum: 50 µM
Escherichia coli D21
  Minimal Inhibitory Concentration E. coli (D21): 6 µM
Bacillus megaterium Bm11
  Minimal Inhibitory Concentration B. megaterium (Bm11): 0.5 µM
[6]
  fold less active in the presence of serum: 8-10 fold
[4]
  Minimal Inhibitory Concentration A. calcoaceticus (Ac11): 3 µM
[7]
  Minimal Inhibitory Concentration B. subtilis (ATCC 6051): 4 µM
[3]
  % hemolysis at 50 μM peptide: 9%
